Series [1] relates to human melanoma cells. The series is described as follows: In vivo effects of omeprazole and cisplatin on tumour growth in the human/SCID mouse model. Further details: species or system CB.17 scid/scid mice. To be noted: cisplatin alone, single dose 5 mg/kg i.p. How it is done: Animals: CB.17 SCID/SCID female mice (Harlan, Italy) were used at 4-5 weeks of age and were kept under specific pathogen-free conditions. SCID mice were housed in microisolator cages, and all food, water and bedding were autoclaved prior to use.
Transplantation and growth of human tumours in SCID mice: Each mouse was injected subcutaneously (s.c.) into the right flank with 3×10^6 cells resuspended in 0.2 ml RPMI 1640 supplemented with 10% FCS. After transplantation, the size of each tumour was measured using callipers. The tumour weight was estimated according to Geran et al. (1972) using the formula:
Tumour weight (mg)=length (mm)×width^2 (min)/2.
Mice treatment: Omeprazole (Astra-Zeneca, Italy) and pantoprazole (Sigma Tau) were administered at a dose of 75 mg/kg by gavage as previously described (Watson and Smith, 2001), as a suspension in PBS1X. Lansoprazole (Pharmacia, Sweden) and rabeprazole (Janssen) were administered at a dose of 25 mg/kg by gavage as previously described (Watson and Smith, 2001), as a suspension in PBS1X.
Cisplatin (Aventis, France) was administered intraperitoneally (i.p.) at a dose of 5 mg/kg (Son and Huang 1994).
Other: unless otherwise specified, other parameters are as set out in Examples 1 and 2, above.

The test system of series [2] is human melanoma cells resistant to cisplatin. The experiment in a line: Effects of omeprazole on cisplatin resistance in vitro (cisplatin dose response curve). Type of series: cell-based. To be noted: without cisplatin. As for the experimental part:
Cytotoxicity assay: Cytotoxicity was evaluated using the Trypan blue exclusion method after treatment with each chemotherapeutic drug. Briefly, after treatment, cells growing in suspension were collected, centrifuged and resuspended in PBS1X. Alternatively, cells growing in adherence were collected, pooling both adherent (live) after trypsinisation and in suspension (assumed dead) cells. Cells were thus centrifuged (10 minutes at 1500 rpm) and resuspended in PBS1X. An aliquot of the cell suspension was diluted 1:1 (v/v) with 0.4% trypan blue. After 5 minutes, cells were loaded on a haemocytometer (Neubauer) and both live (not stained) and dead (blue stained) cells were counted under a light microscope. Cell viability was assessed calculating the percentage of dead cells using the formula:
% dead cells=(no. dead cells/no. dead cells+no. live cells)×100.
Drugs: The PPIs were as in Example 1, above. Cisplatin (Aventis, France) was resuspended in PBS1X at a stock concentration of 1 mg/ml, and stored at −20° C. Both stock solutions were thawed immediately before use and not frozen again. 5-Fluorouracil (Teva Pharma, Holland) was supplied in the form of a solution at a concentration of 50 mg/ml, and was stored at r.t. as indicated by the supplier. […]

Series [3] has as its system human melanoma cells. The series is described as follows: Cytotoxic effect of omeprazole in vitro, dose response curve (Trypan blue exclusion; Live/Dead assay). To be noted: 0.01-10 μg/ml. Type of series: cell-based.
Experimental: Tumour cells: Human tumour cells (24 melanoma cell lines, 2 colon adenocarcinoma cell lines and 2 breast cancer cell lines) obtained from a primary tumour were cultured in buffered (with bicarbonate) or not buffered (without bicarbonate) RPMI 1640 medium enriched with 10% foetal bovine serum and antibiotics in a humidified 5% C02 and 95% air atmosphere.
Dose response curves: Tumour cells, growing in suspension, were plated at 1.5×10^5/ml, in 24 wells cell culture plate (Costar). Tumour cells growing in adherence were plated at 3×10^4 cells/well in 24 wells cell culture plate. Each dilution was tested at least in triplicate in each experiment.
Cytotoxicity assay: Cytotoxicity was evaluated using the Trypan blue exclusion method after treatment with each chemotherapeutic drug. Briefly, after treatment, cells growing in suspension were collected, centrifuged and resuspended in PBS1X. Alternatively, cells growing in adherence were collected, pooling both adherent (live) after trypsinisation and in suspension (assumed dead) cells. […] After 5 minutes, cells were loaded on a haemocytometer (Neubauer) and both live (not stained) and dead (blue stained) cells were counted under a light microscope. Cell viability was assessed calculating the percentage of dead cells using the formula: […]
Live/Dead Viability/Cytotoxicity Assay®. This assay (Molecular Probes, OR, USA) provides a two colour fluorescence cell viability assay that is based on the simultaneous determination of live and dead cells with two probes (Calcein AM and Ethidium homodimer 1) that measure two recognised parameters of cell viability—intracellular esterase activity and plasma membrane integrity. Live cells were distinguished by the presence of ubiquitous intracellular esterase activity, determined by the enzymatic conversion of the virtually non-fluorescent cell permeant Calcein AM to the intensely fluorescent calcein (ex/em 495 nm/515 nm), which is retained in the cell. […] The samples were analysed with a FACScan cytometer (Becton Dickinson) equipped with a 488 argon laser. […]

“Also recorded” adds a separate entry of the source.

In the case of `N.N.[Cl][Pt][Cl]` [cisplatin], the tumour growth result in the series on human melanoma cells [1] is given as “did not show a significant effect on tumour growth; also recorded: almost ineffective if administered alone”.

Take `COc1ccc2[nH]c([S+]([O-])Cc3ncc(C)c(OC)c3C)nc2c1` (stereo not shown) [omeprazole]: in series [2], the “cytotoxic effect of omeprazole alone” value is listed as “did not exhibit any cytotoxic effect”. Also, the “cytotoxic effect (% dead cells)” value is on record as “no apparent cytotoxic effect” in the series on human melanoma cells [3] (buffered neutral medium pH 7.2) and “cytotoxic in a dose-dependent manner only for tumour cells grown in slightly acidic medium; also recorded: markedly exerted a cytotoxic effect on tumour cells, in a dose-dependent manner” in the series with human melanoma cells [3] (not buffered, slightly acidic medium).

The values are drawn from patent US20080160106A1, “Novel Uses for Proton Pump Inhibitors” (Istituto Superiore de Sanita, priority 2004, published 2008).
